What was measured:
[1] = system: 2nd KSO cells (secondary mouse embryonic fibroblasts); test: iPS cell colony formation from 2nd KSO secondary MEFs after siRNA transfection; type: cell-based; conditions: siRNA 50 nM
From the text: Applicants next sought to determine the effect of inhibiting H3K9 methyltransferases on generation of iPS cells. For some experiments, Applicants used “secondary” mouse embryonic fibroblasts (MEFs) that express murine reprogramming factors Klf4, Sox2, and Oct4 under the control of a doxycycline (“dox”)-inducible promoter. These cells, which are referred to as “2nd KSO” cells for short, reprogram to form iPS cells at a low frequency upon treatment with doxycycline, as described in the literature. The cells contained an Oct4-neo transgene, thereby allowing use of G418 to select for cells that were reprogrammed to pluripotency (as evidenced by expression from the Oct4 promoter).
Applicants plated 2nd KSO cells into individual wells of 6-well dishes (100,000 cells per well) in mES cell medium (3 ml) on day 0. On day 1, cells in individual wells were transfected with siRNA (Ambion) designed to inhibit expression of a gene encoding one of the following H3K9 methyltransferases: Ehmt1, Ehmt2, Suv39h1, Suv39h2, and Riz1. Two different siRNAs targeted to each of these genes were used (each well received a single siRNA sequence). […] Accordingly, results obtained using this siRNA must be disregarded. […]
Cells were treated with dox to induce expression of the reprogramming factors. […] Colonies were counted on day 20.

G9a HMTase = target: T1, G9a HMTase (Homo sapiens, UniProt Q96KQ7); conditions: cited from earlier work
T1 sequence (Q96KQ7 1-1210): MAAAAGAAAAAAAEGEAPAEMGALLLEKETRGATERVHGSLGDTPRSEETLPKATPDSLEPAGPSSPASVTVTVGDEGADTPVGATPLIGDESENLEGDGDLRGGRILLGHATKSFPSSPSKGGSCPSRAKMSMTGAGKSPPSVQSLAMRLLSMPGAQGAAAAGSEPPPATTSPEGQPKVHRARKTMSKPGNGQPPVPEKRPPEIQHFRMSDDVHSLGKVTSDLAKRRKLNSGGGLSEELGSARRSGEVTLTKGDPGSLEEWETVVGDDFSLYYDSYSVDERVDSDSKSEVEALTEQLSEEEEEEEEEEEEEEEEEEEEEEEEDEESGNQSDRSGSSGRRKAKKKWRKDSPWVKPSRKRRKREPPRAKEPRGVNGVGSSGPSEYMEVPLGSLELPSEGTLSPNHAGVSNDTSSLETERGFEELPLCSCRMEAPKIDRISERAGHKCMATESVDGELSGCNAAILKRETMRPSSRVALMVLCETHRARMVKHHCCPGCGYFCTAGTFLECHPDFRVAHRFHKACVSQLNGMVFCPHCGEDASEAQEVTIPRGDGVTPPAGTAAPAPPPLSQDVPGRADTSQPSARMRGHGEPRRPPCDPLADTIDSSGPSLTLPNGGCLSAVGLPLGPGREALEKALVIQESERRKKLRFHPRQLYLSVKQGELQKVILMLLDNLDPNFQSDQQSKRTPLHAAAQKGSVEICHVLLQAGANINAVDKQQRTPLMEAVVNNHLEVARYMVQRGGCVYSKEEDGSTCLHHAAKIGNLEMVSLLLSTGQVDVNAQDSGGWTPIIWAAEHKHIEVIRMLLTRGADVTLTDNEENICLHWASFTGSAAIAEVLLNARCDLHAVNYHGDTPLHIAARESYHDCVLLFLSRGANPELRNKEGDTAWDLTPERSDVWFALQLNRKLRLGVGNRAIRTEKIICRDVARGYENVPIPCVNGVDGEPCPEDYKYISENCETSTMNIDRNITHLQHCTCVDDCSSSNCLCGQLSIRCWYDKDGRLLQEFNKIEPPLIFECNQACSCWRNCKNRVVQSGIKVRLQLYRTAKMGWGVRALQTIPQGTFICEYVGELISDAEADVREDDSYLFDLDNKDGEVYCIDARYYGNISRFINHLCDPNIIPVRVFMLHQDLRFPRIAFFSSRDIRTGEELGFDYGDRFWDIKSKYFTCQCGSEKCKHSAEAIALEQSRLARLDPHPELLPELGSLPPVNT

histone deacetylase = conditions: cited from earlier work

## siRNA #2 against SetDB1: siRNA (Ambion) vs ESET/SetDB1; sense GGACGAUGCAGGAGAUAGAtt, antisense UCUAUCUCCUGCAUCGUCCga (sense GGACGAUGCAGGAGAUAGATT; antisense UCUAUCUCCUGCAUCGUCCGA; chemistry not given here)
[1]; dox, G418 from day 14, colonies counted on day 20
  number of iPS cell colonies / reprogramming efficiency: most striking increase in reprogramming efficiency

## s82302: siRNA (Ambion) vs suv39h2; sense GUGUCGAUGUGGACCUGAAtt, antisense UUCAGGUCCACAUCGACACct (sense GUGUCGAUGUGGACCUGAATT; antisense UUCAGGUCCACAUCGACACCT; chemistry not given here)
[1]; 2nd KSO cells
  cell growth: inhibited cell growth

## COc1cc2nc(N3CCCN(C)CC3)nc(NC3CCN(Cc4ccccc4)CC3)c2cc1OC [BIX-01294]
G9a HMTase
  competition with cofactor S-adenosyl-methionine: does not compete with the cofactor S-adenosyl-methionine
G9a HMTase; in vitro
  selective inhibition of HMTase and generation of H3K9me2: selectively impairs the G9a HMTase and the generation of H3K9me2 in vitro

## CC(/C=C/C(=O)NO)=C\[C@@H](C)C(=O)c1ccc(N(C)C)cc1 [Trichostatin A, [R-(E,E)]-7-[4-(Dimethylamino)phenyl]-N-hydroxy-4,6-dimethyl-7-oxo-2,4-heptadienamide]
Histone deacetylase
  concentration inhibiting histone deacetylase: nanomolar concentrations
